In ChEMBL document CHEMBL4196118, “Discovery of MK-8318, a Potent and Selective CRTh2 Receptor Antagonist for the Treatment of Asthma” (ACS Med Chem Lett, 2018):

Key:
[1] = AUC (0 to 6 hrs) in rat at 2 mg/kg, iv; assay type: ADME, organism-based; parameters: time < 6 hr, dose 2 mg/kg, route intravenous; settings: in vivo
[2] = biological target: T1, Prostaglandin D2 receptor 2 (Homo sapiens, UniProt Q9Y5Y4)
T1 sequence (Q9Y5Y4 whole entry): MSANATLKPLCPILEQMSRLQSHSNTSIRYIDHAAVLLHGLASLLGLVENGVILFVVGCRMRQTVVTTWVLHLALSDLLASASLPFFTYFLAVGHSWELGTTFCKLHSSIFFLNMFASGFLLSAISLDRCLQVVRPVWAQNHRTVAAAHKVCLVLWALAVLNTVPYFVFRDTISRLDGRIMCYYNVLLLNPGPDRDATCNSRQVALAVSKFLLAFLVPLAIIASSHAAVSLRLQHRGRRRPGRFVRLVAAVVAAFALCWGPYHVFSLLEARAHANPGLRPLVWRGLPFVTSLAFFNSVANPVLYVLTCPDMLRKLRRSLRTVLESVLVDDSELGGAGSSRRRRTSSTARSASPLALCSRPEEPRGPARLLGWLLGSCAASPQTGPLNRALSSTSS

[3] = biological target: T1, Prostaglandin D2 receptor 2; remark: listed apart in the source
Description: Antagonist activity at human CRTh2 expressed in CHOK1 cells assessed as inhibition of PGD2-induced beta-arrestin recruitment incubated for 30 mins followed by PGD2 stimulation measured after 60 mins by PathHunter based chemiluminescence assay

[4] = biological target: T1, Prostaglandin D2 receptor 2; experiment: biochemical
Description: Displacement of [3H]PGD2 from human CRTh2 expressed in HEK cell membranes after 60 mins by scintillation counting method

[5] = AUC (0 to 6 hrs) in rat at 0.5 mg/kg, iv; assay type: ADME, organism-based; parameters: time < 6 hr, dose 0.5 mg/kg, route intravenous; settings: in vivo
[6] = Intrinsic clearance in rat hepatocytes assessed per million cells; assay type: ADME, cell-based, Hepatocyte; settings: read-out: CLH

O=C(O)CCC(=O)N(C1CC1)[C@H]1c2cc(F)ccc2N(C(=O)c2ccc(SC(F)(F)F)cc2)[C@H]2CCC[C@H]21
AUC(0-t) at 6 h [1]: 1.87 µM·h
IC50 [2]: 12 nM
IC50 [3]: 2.4 nM
Ki [4]: 8.4 nM

O=C(O)CCC(=O)N(C1CC1)[C@H]1c2ccccc2N(C(=O)c2ccc(OC(F)(F)F)cc2)[C@H]2CCCC21 (single isomer, unassigned)
AUC(0-t) at 6 h [5]: 0.62 µM·h
Ki [4]: 7 nM

O=C(O)CCC(=O)N(C1CC1)[C@H]1c2ccccc2N(C(=O)c2ccc(OC(F)(F)F)cc2)[C@H]2CC[C@H]21
hepatocyte CLint [6]: 13 µL/min/1e6 cells

C[C@H](OC(=O)N1c2ccccc2[C@H](N(C(=O)CCC(=O)O)C2CC2)[C@@H]2CCC[C@@H]21)c1ccc(F)cc1
AUC(0-t) at 6 h [5]: 0.32 µM·h

O=C(O)COC(=O)N(C1CC1)[C@H]1c2ccccc2N(C(=O)c2cccc(F)c2)[C@H]2CC[C@H]21
hepatocyte CLint [6]: 20 µL/min/1e6 cells
IC50 [2]: 0.8 nM
IC50 [3]: 1.1 nM
Ki [4]: 4.1 nM

O=C(O)CCC(=O)N(C1CC1)[C@H]1c2ccccc2N(C(=O)c2cccc(OC(F)(F)F)c2)[C@H]2CC[C@H]21
AUC(0-t) at 6 h [5]: 0.31 µM·h
hepatocyte CLint [6]: 15 µL/min/1e6 cells
IC50 [3]: 43 nM
Ki [4]: 5 nM

O=C(O)CCC(=O)N(C1CC1)[C@H]1c2ccccc2N(C(=O)c2cccc(F)c2)[C@H]2CC[C@H]21
AUC(0-t) at 6 h [5]: 0.3 µM·h
hepatocyte CLint [6]: 16 µL/min/1e6 cells
IC50 [3]: 9.3 nM
Ki [4]: 8.1 nM

O=C(O)CCC(=O)N(C1CC1)[C@H]1c2ccc(Cl)cc2N(C(=O)c2ccc(OC(F)(F)F)cc2)[C@H]2CCC[C@H]21
IC50 [2]: 110 nM
IC50 [3]: 59 nM
Ki [4]: 2.3 nM
